Results taken from ChEMBL document CHEMBL1151014, “Tetrazole-substituted ureas as inhibitors of acyl-CoA:cholesterol O-acyltransferase (ACAT). A novel preparation of ureas from weakly nucleophilic amines” (Bioorg Med Chem Lett, 1996).

Assays:
[1] = system: Rattus norvegicus; assay: Total serum cholesterol level was measured in rats after administering single high-fat, high cholesterol meal; assay type: functional
[2] = target: T1, Sterol O-acyltransferase 1 (Rattus norvegicus, UniProt O70536); assay: Liver ACAT inhibitory activity was determined in vitro using [1-14C]oleolyl-CoA and microsomes isolated from the livers of cholesterol fed rats; parameters: species or system Microsome
T1 sequence (O70536 whole entry): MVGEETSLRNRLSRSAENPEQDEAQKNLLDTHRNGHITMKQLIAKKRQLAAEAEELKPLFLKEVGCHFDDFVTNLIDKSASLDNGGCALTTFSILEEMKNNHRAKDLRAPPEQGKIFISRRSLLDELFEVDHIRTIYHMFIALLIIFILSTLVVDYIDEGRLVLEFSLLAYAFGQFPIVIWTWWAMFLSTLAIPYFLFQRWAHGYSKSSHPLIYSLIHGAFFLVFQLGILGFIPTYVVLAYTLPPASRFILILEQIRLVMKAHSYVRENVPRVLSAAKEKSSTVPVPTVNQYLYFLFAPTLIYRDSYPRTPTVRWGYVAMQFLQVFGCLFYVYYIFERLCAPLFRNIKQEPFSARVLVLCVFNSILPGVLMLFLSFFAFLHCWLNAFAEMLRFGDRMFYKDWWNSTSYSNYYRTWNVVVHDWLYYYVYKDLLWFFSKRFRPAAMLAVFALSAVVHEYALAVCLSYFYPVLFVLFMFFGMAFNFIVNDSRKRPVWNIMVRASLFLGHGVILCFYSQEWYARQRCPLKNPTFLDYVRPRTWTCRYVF

[3] = target: T1, Sterol O-acyltransferase 1; assay: Liver Acyl coenzyme A:cholesterol acyltransferase inhibitory activity was determined in vitro using [1-14C]oleolyl-CoA and microsomes isolated from the livers of cholesterol fed rats; parameters: species or system Microsome
[4] = system: Oryctolagus cuniculus; assay: Compound was tested for systemic bioactivity in plasma, drawn four hours post dose from cholesterol -fed rabbit, with rat liver microsomes (ABIO) at a dose of 22 mg/kg; assay type: functional; conditions: 4 h
[5] = target: T2, Sterol O-acyltransferase 1 (Mus musculus, UniProt Q61263); assay: Compound was tested for its ability to penetrate the cell wall and inhibit macrophage ACAT in cell culture using murine IC-21 macrophages (MAI); assay type: functional
T2 sequence (Q61263 whole entry): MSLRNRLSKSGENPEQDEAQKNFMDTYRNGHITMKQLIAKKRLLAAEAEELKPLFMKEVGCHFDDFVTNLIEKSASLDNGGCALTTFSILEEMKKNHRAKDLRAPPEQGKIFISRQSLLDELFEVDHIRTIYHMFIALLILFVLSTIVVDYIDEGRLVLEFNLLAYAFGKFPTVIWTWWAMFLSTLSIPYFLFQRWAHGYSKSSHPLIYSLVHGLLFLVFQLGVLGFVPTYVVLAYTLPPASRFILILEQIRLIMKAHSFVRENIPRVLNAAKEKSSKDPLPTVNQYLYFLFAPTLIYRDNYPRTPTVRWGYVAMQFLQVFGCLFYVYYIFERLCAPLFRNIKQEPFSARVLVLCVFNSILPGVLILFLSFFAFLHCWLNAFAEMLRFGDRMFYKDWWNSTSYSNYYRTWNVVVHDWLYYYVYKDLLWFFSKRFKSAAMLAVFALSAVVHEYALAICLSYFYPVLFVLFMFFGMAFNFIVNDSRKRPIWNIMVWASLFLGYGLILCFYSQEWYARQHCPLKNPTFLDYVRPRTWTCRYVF

[6] = system: Oryctolagus cuniculus; assay: Compound was tested for systemic bioactivity in plasma, drawn four hours post dose from cholesterol -fed rabbit, with rat liver microsomes (ABIO) at a dose of 24 mg/kg; assay type: functional; conditions: 4 h
[7] = system: Oryctolagus cuniculus; assay: Compound was tested for percent change in plasma triglycerides relative to progression control in an injured cholesterol-fed rabbit (ICFR) model at a dose of 5 mg/kg; assay type: functional
[8] = system: Oryctolagus cuniculus; assay: Compound was tested for systemic bioactivity in plasma, drawn four hours post dose from cholesterol -fed rabbit, with rat liver microsomes (ABIO) at a dose of 25 mg/kg; assay type: functional; conditions: 4 h
[9] = system: Oryctolagus cuniculus; assay: Compound was tested for systemic bioactivity in plasma, drawn four hours post dose from cholesterol -fed rabbit, with rat liver microsomes (ABIO) at a dose of 5 mg/kg; assay type: functional; conditions: 4 h
[10] = system: Oryctolagus cuniculus; assay: Compound was tested for percent change in total serum cholesterol relative to progression control in an injured cholesterol-fed rabbit (ICFR) model at a dose of 5 mg/kg; assay type: functional
[11] = system: Oryctolagus cuniculus; assay: Anti-atherosclerosis activity was determined by measuring the thoracic aortic lesion coverage in an injured cholesterol-fed rabbit (ICFR) model at a dose of 5 mg/kg; assay type: functional, Aorta
[12] = system: Oryctolagus cuniculus; assay: Anti-atherosclerosis activity was determined by measuring the thoracic aortic lesion coverage in an injured cholesterol-fed rabbit (ICFR) model at a dose of 25 mg/kg; assay type: functional, Aorta
[13] = system: Oryctolagus cuniculus; assay: Compound was tested for percent change in total serum cholesterol relative to progression control in an injured cholesterol-fed rabbit (ICFR) model at a dose of 25 mg/kg; assay type: functional
[14] = system: Oryctolagus cuniculus; assay: Compound was tested for percent change in plasma triglycerides relative to progression control in an injured cholesterol-fed rabbit (ICFR) model at a dose of 25 mg/kg(p<0.10); assay type: functional
[15] = target: T2, Sterol O-acyltransferase 1; assay: Compound was tested for its ability to penetrate the cell wall and inhibit macrophage ACAT in cell culture using murine IC-21 macrophages (MAI) at 0.1 uM; not active; assay type: functional
[16] = system: Oryctolagus cuniculus; assay: Anti-atherosclerosis activity was determined by measuring the thoracic aortic lesion coverage in an injured cholesterol-fed rabbit (ICFR) at a dose of 25 mg/kg; assay type: functional, Aorta
[17] = system: Oryctolagus cuniculus; assay: Compound was tested for percent change in plasma triglycerides relative to progression control in an injured cholesterol-fed rabbit (ICFR) model at a dose of 25 mg/kg; assay type: functional

## CCCCCn1nnc(N(C(=O)Nc2c(OC)cc(OC)cc2OC)c2ccccc2)n1
[1]
  Delta TC: -43%
[2]
  IC50: 450 nM

## COc1cc(OC)c(NC(=O)N(c2ccccc2)c2nnn(CCCCCCCCCC(C)C)n2)c(OC)c1
[3]
  IC50: 40 nM

## CCCCCCCCCCCCn1nnc(N(CCCCCCC)C(=O)Nc2c(OC)cc(OC)cc2OC)n1
[1]
  Delta TC: -20%
[3]
  IC50: 290 nM

## CC(C)c1cccc(C(C)C)c1NC(=O)N(c1ccccc1)c1nnn(CCCCCCCCOC2CCCCO2)n1 (stereo not drawn)
[1]
  Delta TC: 42%
[3]
  IC50: 16 nM

## COc1cc(OC)c(NC(=O)N(c2ccccc2)c2nnn(CCCCCCCCOC3CCCCO3)n2)c(OC)c1 (stereo not drawn)
[1]
  Delta TC: -50%
[3]
  IC50: 41 nM

## CCCCCCCCCCCCCCn1nnc(N(C(=O)Nc2c(OC)cc(OC)cc2OC)c2ccccc2)n1
[1]
  Delta TC: -22%
[3]
  IC50: 71 nM

## CCCCCCCCCCCCn1nnc(N(Cc2ccccc2)C(=O)Nc2c(OC)cc(OC)cc2OC)n1
[3]
  IC50: 35 nM

## CCCCCCCCCCCCn1nnc(N(C(=O)Nc2c(OC)cc(OC)cc2OC)c2ccccc2)n1
[4]
  inhibition in vivo at 22 mg/kg: 58%
[1]
  Delta TC: 74%
[5]
  IC50: 890 nM
[2]
  IC50: 61 nM

## CCCCCCCCCCCCn1nnc(N(C(=O)Nc2c(C(C)C)cccc2C(C)C)C2CCCCC2)n1
[6]
  inhibition in vivo at 24 mg/kg: 77%
[1]
  Delta TC: 10%
[5]
  IC50: 3100 nM
[3]
  IC50: 31 nM

## CCCCCCCCCCCCn1nnc(N(C(=O)Nc2c(OC)cc(OC)cc2OC)C2CCCCC2)n1
[7]
  Delta TG: 4%
[8]
  inhibition in vivo at 25 mg/kg: 58%
[9]
  inhibition in vivo at 5 mg/kg: 0%
[10]
  Delta TC: 22%
[11]
  Lesion coverage: 49%
[12]
  Lesion coverage: 44%
[1]
  Delta TC: 67%
[2]
  IC50: 57 nM
[13]
  Delta TC: 21%
[14]
  Delta TG: 68%
[15]
  IC50: Not Active

## CCCCCCCCCCCCn1nnc(N(C(=O)Nc2c(C(C)C)cccc2C(C)C)c2ccccc2)n1
[4]
  inhibition in vivo at 22 mg/kg: 79%
[1]
  Delta TC: 52%
[5]
  IC50: 240 nM

## CCCCCCCCCCC(C)(C)C(=O)Nc1c(OC)cc(OC)cc1OC [CL-976]
[16]
  Lesion coverage: 39%
[8]
  inhibition in vivo at 25 mg/kg: 73%
[17]
  Delta TG: -7%
[13]
  Delta TC: -24%
